Common to all, as to experiment: MTase-Glo methyltransferase assay (SAH luminescence), Michaelis-Menten fit
Holding throughout (format): biochemical, Musella lasiocarpa

For one data set, the system named is T1, Ml01G0494.
T1 construct: MBP fusion from pMAL-c4x (EcoRI/SalI), E. coli BL21 (DE3), purified
To be noted: 2 mM SAM, 45°C, 30 min; Tris-HCl; read-out: apparent Km.

A further data set concerns T2, Ml08G0855.
T2 construct: MBP fusion from pMAL-c4x (EcoRI/SalI), E. coli BL21 (DE3), purified
The settings on record: 2 mM SAM, 45°C, 30 min; Tris-HCl; read-out: apparent Km.

Substrate in data set [1]: O=C1C(O)=Cc2cccc3ccc(-c4ccccc4)c1c23
To be noted: 2 mM SAM, 45°C, 30 min, Tris-HCl. An excerpt:
(§1) MTase-Glo methyltransferase assay (SAH luminescence), Michaelis-Menten fit on Ml04G2958 | The apparent Kcat/Km values of Ml01G0494, Ml04G2958, and Ml08G0855 for MLT3 | the apparent Kcat/Km values of Ml01G0494, Ml04G2958, and Ml08G0855 for MLT4

Substrate in data set [2]: O=C1C(O)=Cc2cccc3ccc(-c4ccc(O)cc4)c1c23
The settings on record: 2 mM SAM, 45°C, 30 min, Tris-HCl.
From the text: as §1

Usually Km stands for the concentration of substrate that gives half-maximal velocity. As for `O=C1C(O)=Cc2cccc3ccc(-c4ccccc4)c1c23` [MLT4], the results for the Km in the data set on Ml01G0494 and in the data set on Ml08G0855 were 8.51 ± 0.13 µM and 37.3 ± 10.7 µM, respectively.
On to `O=C1C(O)=Cc2cccc3ccc(-c4ccc(O)cc4)c1c23` [MLT3], for which the Km in the data set with Ml01G0494 worked out at 60.4 ± 16.6 µM; in the data set with Ml08G0855 it was 111 ± 27.4 µM.
The matching figures for `O=C1C(O)=Cc2c(-c3ccc(O)c(O)c3)ccc3cccc1c23` [MLT9]: 971 µM and 81.9 µM.

B1: Ml04G2958 (Musella lasiocarpa) (protein)
chain: MAGPHVVDAVGEHSEPYKSASRAHHHHYRHHSSLPLRTMGSVRAAAAALQPSPEEDEEACLQAGQLVSSSVLPMTLKAAIELQLLEIIVGAGPGARLSPADVAAQLPTTNPQAAAMVDRILRLLAAYGIVGCSVEAGPDGRPCRKYGAAPVCKYLTRNEDGVSFAALSLMNQDKVLMESWYHLKDAVLEGGIPFNKAYGMTAFEYHGTDPRFNKVFNEGMRSHSIIITKKLLQVYRGFDDVKVLVDVGGGTGATLHMITSTHPHILGINYDLPHVISDAPPLPGVEHVSGDMFESVPGGDAILMKWILHDWSDEHCAKILKNCWKALPEKGKLIAVECVLPVVPEPSLRTQSVCHVDLIMLAHNPGGKERTEMEFEELAKQAGFSGFKPTYVYASTWALEFTK
notes: MBP fusion from pMAL-c4x (EcoRI/SalI), E. coli BL21 (DE3), purified
The kcat is the maximal rate divided by the concentration of active sites. As for B1, the figures for the Km in data set [1] and in data set [2] were 5.30 ± 0.68 µM and 69.94 ± 14.71 µM, respectively. The kcat in data set [1] is 0.00033 s⁻¹; in data set [2] it was 0.0005 s⁻¹.
